Data from PMC5519633, “Endolysosomal targeting of a clinical chlorin photosensitiser for light-triggered delivery of nano-sized medicines” (Scientific Reports, 2017).
Each block holds one compound with its values, some of them ahead of it.

Legend:
[1] = standard reference compound in deuterated methanol; cited from earlier work
Excerpt: For the determination of the singlet oxygen quantum yield (ΦΔ), deuterated methanol (CD3OD) was used since singlet oxygen has a relatively long lifetime in deuterated solvents. To confirm that the methanolic solutions of the conjugates and chlorin e6 at the concentrations studied were monomeric, absorption ...

[2] = in dimethylformamide; cited from earlier work
[3] = test system: human pharyngeal FaDu carcinoma cells; conditions: cited from earlier work
Excerpt: The lower uptake of the free chlorin is consistent with its lower PDT efficacy compared to the conjugates, as discussed below. […] Figure 3H and I show sequential images ...

MC28 cells [4] = test: In vitro PDT phototoxicity, MTT assay; assay type: cell-based, rat; conditions: 3.2 µM, 18 h incubation, 5 min illumination, 420 nm, 7 mW cm-2, MTT 48 h after light, three independent experiments
[5] = Absorption spectra as a function of concentration (test for aggregation); assay type: physicochemical; conditions: methanolic solution; up to 8 μM; 398 nm for conjugates, 399 nm for chlorin e6
Protocol: For the determination of the singlet oxygen quantum yield (ΦΔ), deuterated methanol (CD3OD) was used since singlet oxygen has a relatively long lifetime in deuterated solvents. To confirm that the methanolic solutions of the conjugates and chlorin e6 at the concentrations studied were monomeric, absorption spectra were recorded as a function of concentration. […] The singlet oxygen quantum yields in deuterated methanol were measured using a standard reference compound, Rose Bengal (ΦΔ = 0.76)[43] using matched reference solution absorbances at the laser wavelength of 532 nm. Using standard zero-point intercept analysis of the singlet oxygen decays, the quantum yield of chlorin e6 was calculated as 0.67, which is in good agreement with the literature, as reviewed by Redmond et al.[43]. Morjzisova et al. reported the quantum yields of several chlorins in dimethylformamide and measured a value of 0.63 for chlorin e6, and observed a similar value for another clinical chlorin PDT photosensitiser, mTHPC (0.68) and disulfonated tetraphenyl chlorin (0.66)[44].
For the singlet oxygen studies, absorption spectra of the compounds were measured using a Perkin-Elmer Lambda 25 UV/Vis spectrometer (Perkin-Elmer, Beaconsfield, UK) with quartz cuvettes. […]

[6] = cited from earlier work
Excerpt: The rationale for selecting chlorin e6 as the photosensitiser for this study on PCI was based on its favourable photosensitising properties but also on its poor lysosomal localisation[40] and bioavailability. The cellular uptake and membrane transport of chlorin e6 has been studied in detail in relation to its acid-base properties. The structure of chlorin e6 contains three adjacent carboxylic acid functions with pKa7.9–8.3[47]which are thus only partially ionised at physiological pH leading to poor aqueous solubility, which complicates systemic administration. At lower pH, as is typical for t ...

[7] = Singlet oxygen quantum yield by time-resolved 1270 nm phosphorescence in deuterated methanol; assay type: physicochemical; conditions: aerated deuterated methanol (CD3OD); 532 nm laser excitation; absorbance matched to Rose Bengal reference; zero-time intercept analysis; estimated experimental error +/- 0.06
MC28 cells [8] = test: Cellular uptake and subcellular localisation, confocal microscopy with LysoTracker Green; assay type: cell-based, rat; conditions: same concentration and image intensity scale as the conjugates
Protocol: Cells were seeded in small Petri dishes, with a glass cover slip bottom window for use with an inverted microscope (Fluorodish, World Precision Inst. UK), and allowed to attach overnight. Cells were incubated for 24 h with the compounds (2.5 µM). Afterwards, culture medium was removed and replaced with fresh medium containing Lysotracker Green (100 nM) for 30 min before microscope imaging. Cells were washed 2 times with PBS and incubated with drug-free/phenol red-free medium for confocal imaging using an Olympus Laser scanning confocal microscope (FluoView FV1000, 60x magnification, NA 1.20, Olympus UK Ltd, Essex, UK). Fluorescence from the photosensitiser was recorded within the range of 620–720 nm using a 405 nm laser for the excitation. For LysoTracker Green, cells were illuminated at 488 nm and the fluorescence signal was recorded at 500–550 nm. Colocalisation analysis and image processing of the 16-bit images were performed with ImageJ software.

KB cells = test: In vitro PDT/PCI phototoxicity with saporin, MTT assay; assay type: cell-based, human; conditions: saporin 20 nM, without photosensitiser

Compound: O=C([O-])c1c(Cl)c(Cl)c(Cl)c(Cl)c1-c1c2cc(I)c(=O)c(I)c-2oc2c(I)c([O-])c(I)cc12.[Na+].[Na+] [Rose Bengal]
- singlet oxygen quantum yield (ΦΔ) of reference standard [1]: 0.76

- peak absorbance of the Soret band versus concentration (monomeric or aggregated) [5]: linear
- singlet oxygen quantum yield (ΦΔ) [7]: 0.67
Compound: C=Cc1c(C)c2cc3nc(c(CC(=O)O)c4[nH]c(cc5nc(cc1[nH]2)C(C)=C5CC)c(C)c4C(=O)O)[C@@H](CCC(=O)O)[C@@H]3C [chlorin e6]
- singlet oxygen quantum yield [2]: 0.63
- cellular uptake of free chlorin e6 compared to dendrimer conjugates of chlorin e6 [3]: an order of magnitude lower
- loss of viability (PDT) (MC28 cells [4]): less than 20%
- pKa of the three carboxylic acid functions [6]: 7.9–8.3
- cellular uptake, intracellular fluorescence relative to the conjugates (MC28 cells [8]): much lower fluorescence

Compound: Oc1cccc(-c2c3nc(c(-c4cccc(O)c4)c4ccc([nH]4)c(-c4cccc(O)c4)c4nc(c(-c5cccc(O)c5)c5ccc2[nH]5)CC4)C=C3)c1 [mTHPC]
- singlet oxygen quantum yield [2]: 0.68

Compound: disulfonated tetraphenyl chlorin
- singlet oxygen quantum yield [2]: 0.66

Compound: saporin
- reduction in viability, saporin alone (KB cells): < 20%
